Test results as given in patent publication US12018059B2, “Human amylin analog polypeptides and methods of use” (Intarcia Therapeutics, Inc., priority 2018, dated 2024).
Starred links: 1 amine or outer side, 2 acyl side, 3 side chain; linkers in the order of their positions; H or OH if unused. Positions of bridges follow the written chain, without caps; N, C: chain ends. Residues, ends and D or L forms follow the SMILES beside them. Groups on a side chain read outwards from the residue. *: point of attachment. X3 = O=C(O)CCCCCCCCCCCCCCCCCCC(=O)N[C@@H](CCC(=O)NCOCCOCC(=O)NCOCCOCC(=O)*)C(=O)O; C18 diacid = O=C(O)CCCCCCCCCCCCCCCCC(=O)*; C16 diacid = O=C(O)CCCCCCCCCCCCCCC(=O)*; γGlu = O=C(O)[C@H](CCC(=O)[*:2])N[*:1]

Experiment: in vivo
Parameters: species or system Sprague-Dawley rats
Conditions: rat, iv, 0.033 mg/kg
In short: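 Peptide plasma levels measured by UPLC-MS/MS (C18, product-ion monitoring) after protein precipitation or WCX SPE, calibrated in K2EDTA/protease-inhibitor rat plasma. Dosing in non-fasted male Sprague-Dawley rats (n=3): 0.033 mg/kg over 1 h by IV or SC infusion, or 0.3 mg/kg SC bolus; sampling up to 48 h.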

Compound | Vd [L/kg] | clearance [mL/min/kg] | half-life [h]
CC[C@H](C)[C@H](NC(=O)[C@@H]1CCCN1C(=O)CNC(=O)[C@H](Cc1ccccc1)NC(=O)[C@H](CC(N)=O)NC(=O)[C@H](CC(N)=O)NC(=O)[C@H](CO)NC(=O)[C@H](CO)NC(=O)[C@H](CCCCN)NC(=O)[C@H](Cc1c[nH]cn1)NC(=O)[C@H](CC(C)C)NC(=O)[C@H](CCCCNC(=O)CC[C@H](NC(=O)CC[C@H](NC(=O)CCCCCCCCCCCCCCC(=O)O)C(=O)O)C(=O)O)NC(=O)[C@H](CC(N)=O)NC(=O)[C@H](C)NC(=O)[C@H](CC(C)C)NC(=O)[C@H](CCCNC(=N)N)NC(=O)[C@H](CCC(N)=O)NC(=O)[C@@H](NC(=O)[C@H](C)NC(=O)[C@@H]1CSSC[C@H](NC(=O)[C@@H](N)CO)C(=O)N[C@@H](CC(N)=O)C(=O)N[C@@H]([C@@H](C)O)C(=O)N[C@@H](CO)C(=O)N[C@@H]([C@@H](C)O)C(=O)N1)[C@@H](C)O)C(=O)N[C@@H](CC(C)C)C(=O)N1CCC[C@H]1C(=O)N1CCC[C@H]1C(=O)N[C@H](C(=O)N[C@@H](CCCCN)C(=O)N[C@H](C(=O)NCC(=O)N[C@@H](CO)C(=O)N[C@@H](CCC(=O)O)C(=O)N[C@H](C(=O)N[C@@H](Cc1ccc(O)cc1)C(N)=O)[C@@H](C)O)C(C)C)[C@@H](C)O [Compound A82] (H-SCNTSTCATQRLANK([γGlu-γGlu-C16 diacid])LHKSSNNFGPILPPTKVGSETY-NH2; disulfide 2-7) | 0.152 | 0.667 | 3.17
CC[C@H](C)[C@H](NC(=O)[C@@H]1CCCN1C(=O)CNC(=O)[C@H](Cc1ccccc1)NC(=O)[C@H](CC(N)=O)NC(=O)[C@H](CC(N)=O)NC(=O)[C@H](CO)NC(=O)[C@H](CO)NC(=O)[C@H](CCCCN)NC(=O)[C@H](Cc1c[nH]cn1)NC(=O)[C@H](CC(C)C)NC(=O)[C@H](CCCCNC(=O)CCCCCCCCCCCCCCCCC(=O)O)NC(=O)[C@H](CC(N)=O)NC(=O)[C@H](C)NC(=O)[C@H](CC(C)C)NC(=O)[C@H](CCCNC(=N)N)NC(=O)[C@H](CCC(N)=O)NC(=O)[C@@H](NC(=O)[C@H](C)NC(=O)[C@@H]1CSSC[C@H](NC(=O)[C@@H](N)CO)C(=O)N[C@@H](CC(N)=O)C(=O)N[C@@H]([C@@H](C)O)C(=O)N[C@@H](CO)C(=O)N[C@@H]([C@@H](C)O)C(=O)N1)[C@@H](C)O)C(=O)N[C@@H](CC(C)C)C(=O)N1CCC[C@H]1C(=O)N1CCC[C@H]1C(=O)N[C@H](C(=O)N[C@@H](CCCCN)C(=O)N[C@H](C(=O)NCC(=O)N[C@@H](CO)C(=O)N[C@@H](CCC(=O)O)C(=O)N[C@H](C(=O)N[C@@H](Cc1ccc(O)cc1)C(N)=O)[C@@H](C)O)C(C)C)[C@@H](C)O [Compound A83] (H-SCNTSTCATQRLANK(C18 diacid)LHKSSNNFGPILPPTKVGSETY-NH2; disulfide 2-7) | 0.123 | 0.499 | 4.06
CC[C@H](C)[C@H](NC(=O)[C@@H]1CCCN1C(=O)CNC(=O)[C@H](Cc1ccccc1)NC(=O)[C@H](CC(N)=O)NC(=O)[C@H](CC(N)=O)NC(=O)[C@H](CO)NC(=O)[C@H](CO)NC(=O)[C@H](CCCCN)NC(=O)[C@H](Cc1c[nH]cn1)NC(=O)[C@H](CC(C)C)NC(=O)[C@H](CCCCNC(=O)CC[C@H](NC(=O)CC[C@H](NC(=O)COCCOCNC(=O)COCCOCNC(=O)CC[C@H](NC(=O)CCCCCCCCCCCCCCCCCCC(=O)O)C(=O)O)C(=O)O)C(=O)O)NC(=O)[C@H](Cc1ccc(O)cc1)NC(=O)[C@H](C)NC(=O)[C@H](CC(C)C)NC(=O)[C@H](CCCNC(=N)N)NC(=O)[C@H](CCC(N)=O)NC(=O)[C@@H](NC(=O)[C@H](C)NC(=O)[C@@H]1CSSC[C@H](NC(=O)[C@@H](N)CO)C(=O)N[C@@H](CC(N)=O)C(=O)N[C@@H]([C@@H](C)O)C(=O)N[C@@H](CO)C(=O)N[C@@H]([C@@H](C)O)C(=O)N1)[C@@H](C)O)C(=O)N[C@@H](CC(C)C)C(=O)N1CCC[C@H]1C(=O)N1CCC[C@H]1C(=O)N[C@H](C(=O)N[C@@H](CCCCN)C(=O)N[C@H](C(=O)NCC(=O)N[C@@H](CO)C(=O)N[C@@H](CCC(=O)O)C(=O)N[C@H](C(=O)N[C@@H](Cc1ccc(O)cc1)C(N)=O)[C@@H](C)O)C(C)C)[C@@H](C)O [Compound A85] (H-SCNTSTCATQRLAYK([γGlu-γGlu-X3])LHKSSNNFGPILPPTKVGSETY-NH2; disulfide 2-7; N-terminus assumed) | 0.146 | 0.0496 | 36.7
